Test results from patent US4451468A, “Acidiferous 17-normal-pentyl sparteine tartaric and fumaric acid salts pharmaceutical compositions thereof” (Kali-Chemie Pharma GmbH, priority 1979, dated 1984).
Converted amounts (≈) assume the structure as drawn. Counter-ions that a name gives are not always drawn.

Columns and labels:
[1] = tested on: isolated auricle of guinea pigs; assay: measurement in the isolated auricle (functional refractory period and contraction force), modified method of Govier; conditions: Cavia porcellus, on the average; for EC (125% of initial value): read-out: FRP: concentration at which the functional refractory period is extended to 125% of the initial values; for IC25: read-out: Force: concentration at which the contraction force is reduced to 75% of the initial values
Procedure: These values were determined by measurements in the isolated auricle of guinea pigs by the method (modified) of Govier, as described by Govier in J. Pharmacol. exp.

mice = assay: LD50 toxicity measurement on mice, i.p., eight days after a single application; assay type: in vivo; conditions: calculated by method of Litchfield
Procedure: The LD50, i.p. values (μmole/1) were determined by toxicity measurements on mice, eight days after a single application. The LD50 values were calculated by the method of J. P. Litchfield et al., J. Pharmacol. exp. Ther. 96, 99 (1949).

[2] = solubility in water at 22° C.; assay type: physicochemical
[3] = hygroscopicity of crystalline salts; assay type: physicochemical
[4] = stability tests (storage at 55° C.; exposure to light) with thin layer chromatography; assay type: physicochemical; conditions: salts
Procedure: In stability tests, no dissociation was found in thin layer chromatographic investigations. One test included storage for one month at 55° C. and as a second test utilized exposure to light (30 hours, rapid light exposure instrument "SUNTEST," Heraeus Co.).

humans = conditions: application to humans; cited from earlier work

SMILES	EC (125% of initial value) [1] [µM]	IC25 [1] [µM]	LD50 i.p. (mice) [μmole/1]	solubility [2] [mg/mL]	hygroscopicity [3]	stability [4]	toxicity in humans (humans)
CCCCCC1C2CC(CN3CCCCC23)C2CCCCN21 (single isomer, unassigned) [acidiferous 17-β-n-pentyl sparteine-L(+) tartrate]	9.1	22.1	262	> 1000	–	–	–
CCCCCC1C2CC(CN3CCCCC23)C2CCCCN21 (stereo not shown) [Example 11]	–	–	–	–	very rapidly dissolved	–	–
CCCCCC1C2CC(CN3CCCCC23)C2CCCCN21 (stereo not drawn) [Pentylsparteine diperchlorate, perchlorate of 17-β-n-pentyl sparteine]	7.7	19.2	283	20 (≈ 65.7 mM)	–	stable salt	leukopenia, agranulocytosis and aplastic anemia
C1CCN2C[C@@H]3C[C@@H](CN4CCCC[C@@H]34)[C@H]2C1 [Sparteine Sulfate, sparteine sulfate]	33.9	959	202	–	–	–	–
CCCCCC1C2CC(CN3CCCCC23)C2CCCCN21 (stereo not drawn) [hydrochloride of 17-β-n-pentyl sparteine]	–	–	–	–	extremely hydroscopic	–	–
CCCCCC1C2CC(CN3CCCCC23)C2CCCCN21 (stereo not drawn) [sulfate of 17-β-n-pentyl sparteine]	–	–	–	–	extremely hydroscopic	–	–
